What was measured:
Type in all cases: biochemical
B-Raf = biological target: T1, B-Raf (Homo sapiens, UniProt P15056); test: AlphaScreen kinase assay, B-Raf; details: read-out: IC50, activity toward kinase B-Raf
T1 construct: purchased Upstate Biotechnology

B-Raf V600E = biological target: T2, B-Raf V600E (Homo sapiens, UniProt P15056, V600E); test: AlphaScreen kinase assay, B-Raf V600E; details: read-out: IC50, activity toward kinase B-Raf V600E
T2 construct: P4254. pFastBacBD-CDC37 BRAF D437-K722-X, V600E; His6 with pFastBac HT leader (TEV site) (N); made in house; host or cells: Sf9 (baculovirus; chaperone CDC37 co-expressed)
T2 sequence (P15056 with tags, fused parts or gaps V600E): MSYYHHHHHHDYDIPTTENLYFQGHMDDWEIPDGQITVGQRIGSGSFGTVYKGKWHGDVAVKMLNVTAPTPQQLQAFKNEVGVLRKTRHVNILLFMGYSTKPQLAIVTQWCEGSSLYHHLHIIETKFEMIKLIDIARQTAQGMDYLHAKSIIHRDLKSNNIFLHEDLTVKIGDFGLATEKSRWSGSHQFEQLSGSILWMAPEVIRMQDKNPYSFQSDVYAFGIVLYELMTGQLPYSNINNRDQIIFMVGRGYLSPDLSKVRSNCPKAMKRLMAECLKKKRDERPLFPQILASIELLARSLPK

c-Raf-1 = biological target: T3, c-Raf-1 (Homo sapiens, UniProt P04049); test: AlphaScreen kinase assay, c-Raf-1; details: read-out: IC50, activity toward kinase c-Raf-1
T3 construct: purchased Upstate Biotechnology
T3 sequence (P04049 whole entry): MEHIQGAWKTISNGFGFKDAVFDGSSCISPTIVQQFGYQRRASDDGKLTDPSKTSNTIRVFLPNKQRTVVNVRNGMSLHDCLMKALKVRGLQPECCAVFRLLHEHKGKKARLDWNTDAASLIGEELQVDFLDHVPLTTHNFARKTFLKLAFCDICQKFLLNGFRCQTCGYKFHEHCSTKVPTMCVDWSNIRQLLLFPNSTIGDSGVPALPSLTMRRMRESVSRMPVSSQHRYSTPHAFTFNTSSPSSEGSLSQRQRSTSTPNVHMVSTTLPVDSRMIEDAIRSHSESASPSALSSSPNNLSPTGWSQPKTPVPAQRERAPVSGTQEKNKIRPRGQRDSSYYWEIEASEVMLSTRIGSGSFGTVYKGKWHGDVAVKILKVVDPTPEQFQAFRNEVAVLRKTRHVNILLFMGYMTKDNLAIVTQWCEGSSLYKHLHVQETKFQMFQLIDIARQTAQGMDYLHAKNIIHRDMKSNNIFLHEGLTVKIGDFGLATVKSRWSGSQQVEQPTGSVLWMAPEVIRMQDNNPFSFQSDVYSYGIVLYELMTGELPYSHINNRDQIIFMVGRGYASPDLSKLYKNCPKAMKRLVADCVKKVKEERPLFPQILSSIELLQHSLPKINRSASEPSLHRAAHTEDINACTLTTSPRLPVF

Fms = biological target: T4, Fms (Homo sapiens, UniProt P07333); test: AlphaScreen kinase assay, Fms; details: read-out: IC50, activity toward kinase Fms
T4 construct: purchased Upstate Biotechnology
T4 sequence (P07333 20-972): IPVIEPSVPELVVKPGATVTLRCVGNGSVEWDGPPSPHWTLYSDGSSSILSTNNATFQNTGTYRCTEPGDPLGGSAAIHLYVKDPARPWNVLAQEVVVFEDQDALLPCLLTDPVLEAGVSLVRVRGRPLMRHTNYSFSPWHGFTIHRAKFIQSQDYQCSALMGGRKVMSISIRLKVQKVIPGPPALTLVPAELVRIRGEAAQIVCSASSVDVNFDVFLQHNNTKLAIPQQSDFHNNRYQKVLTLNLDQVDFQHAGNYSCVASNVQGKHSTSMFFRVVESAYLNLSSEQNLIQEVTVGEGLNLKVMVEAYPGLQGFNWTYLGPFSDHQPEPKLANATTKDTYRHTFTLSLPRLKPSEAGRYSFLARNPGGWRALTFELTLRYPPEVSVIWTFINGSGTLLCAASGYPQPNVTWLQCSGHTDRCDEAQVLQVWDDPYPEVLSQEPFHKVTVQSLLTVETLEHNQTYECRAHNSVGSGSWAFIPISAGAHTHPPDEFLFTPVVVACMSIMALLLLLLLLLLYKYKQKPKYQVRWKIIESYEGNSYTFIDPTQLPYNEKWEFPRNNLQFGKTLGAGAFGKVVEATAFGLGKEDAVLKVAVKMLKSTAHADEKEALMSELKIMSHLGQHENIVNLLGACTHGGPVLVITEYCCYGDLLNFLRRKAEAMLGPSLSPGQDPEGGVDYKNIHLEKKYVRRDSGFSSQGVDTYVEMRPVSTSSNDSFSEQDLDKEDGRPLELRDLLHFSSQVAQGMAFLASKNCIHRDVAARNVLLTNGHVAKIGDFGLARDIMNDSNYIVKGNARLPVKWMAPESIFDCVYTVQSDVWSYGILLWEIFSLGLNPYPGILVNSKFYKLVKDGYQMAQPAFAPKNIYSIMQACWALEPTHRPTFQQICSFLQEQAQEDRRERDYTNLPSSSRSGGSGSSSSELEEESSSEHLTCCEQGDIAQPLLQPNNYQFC

Kit = biological target: T5, Kit (Homo sapiens, UniProt P10721); test: AlphaScreen kinase assay, Kit; details: read-out: IC50, activity toward kinase Kit
T5 construct: P1332.N6 BI PTP KIT M552-K948-X COD; His6 (N); made in house; host or cells: E. coli (PTP1B co-expressed)
T5 sequence (P10721 with tags, fused parts or gaps): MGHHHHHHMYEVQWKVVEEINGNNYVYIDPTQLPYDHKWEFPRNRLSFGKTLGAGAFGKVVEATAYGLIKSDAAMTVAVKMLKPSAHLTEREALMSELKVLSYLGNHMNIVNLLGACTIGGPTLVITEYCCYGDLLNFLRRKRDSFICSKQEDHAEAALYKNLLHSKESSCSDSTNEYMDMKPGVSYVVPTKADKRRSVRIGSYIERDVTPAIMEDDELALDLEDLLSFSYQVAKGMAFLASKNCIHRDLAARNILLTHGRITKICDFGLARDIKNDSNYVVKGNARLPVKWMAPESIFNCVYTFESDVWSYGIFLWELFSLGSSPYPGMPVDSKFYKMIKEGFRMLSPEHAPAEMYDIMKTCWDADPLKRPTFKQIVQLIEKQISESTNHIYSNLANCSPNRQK
Source text: (§1) AlphaScreen assay was used to screen additional kinases. The assay is similarly dependent on the phosphorylation of a peptide substrate. In this assay, an antibody that recognizes phosphorylated substrate is bound to an acceptor bead. The peptide substrate is attached to biotin, which binds to a donor head that contains streptavidin. Thus phosphorylated substrate is bound by antibody and streptavidin, bringing the donor and acceptor heads into close proximity when kinase is not inhibited. The donor produces singlet oxygen which results in emission from the acceptor when they are in close proximity. Conversely, when kinase is inhibited, the donor and acceptor beads are not associated and the emission from the acceptor is reduced.
(§2) AlphaScreen assays were done using compounds dissolved in DMSO to a concentration of 20 mM. The compounds were diluted accordingly to the desired final concentrations in each sample well, using 1:3 serial dilution for a total of 8 concentration points. Plates were prepared such that each kinase reaction is 20 μl in 1× kinase buffer, 5% DMSO and 10 μM ATP. After incubation of the kinase reaction for 1 hour at room temperature, 5 μl of donor beads in stop buffer (50 mM EDTA in 1× kinase buffer) was added, the sample was mixed and incubated for 20 minutes at room temperature before adding 5 μl of acceptor beads in stop buffer. The samples were incubated for 60 minutes at room temperature and the signal per well was read on AlphaQuest reader.

FGFR1 = biological target: T6, FGFR1 (Homo sapiens, UniProt P11362, C488A/C584S); test: AlphaScreen kinase assay, FGFR1; details: read-out: IC50, activity toward kinase FGFR
T6 construct: P1351.pET N6 BI-PTP FGFR A458-E765-X C488A, C584S; made in house; host or cells: E. coli (PTP1B co-expressed)
T6 sequence (P11362 458-765 C488A/C584S): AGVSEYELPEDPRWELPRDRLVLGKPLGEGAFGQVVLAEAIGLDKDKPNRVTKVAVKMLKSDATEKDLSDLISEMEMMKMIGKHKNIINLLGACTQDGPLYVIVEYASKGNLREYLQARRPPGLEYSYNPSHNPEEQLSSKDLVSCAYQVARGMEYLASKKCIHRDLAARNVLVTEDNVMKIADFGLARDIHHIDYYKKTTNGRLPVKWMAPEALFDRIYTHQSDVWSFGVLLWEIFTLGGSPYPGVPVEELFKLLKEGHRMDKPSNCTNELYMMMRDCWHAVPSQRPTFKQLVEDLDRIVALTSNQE
Source text: as §1, §2

Measured: IC50

T1 sequence (P15056 whole entry): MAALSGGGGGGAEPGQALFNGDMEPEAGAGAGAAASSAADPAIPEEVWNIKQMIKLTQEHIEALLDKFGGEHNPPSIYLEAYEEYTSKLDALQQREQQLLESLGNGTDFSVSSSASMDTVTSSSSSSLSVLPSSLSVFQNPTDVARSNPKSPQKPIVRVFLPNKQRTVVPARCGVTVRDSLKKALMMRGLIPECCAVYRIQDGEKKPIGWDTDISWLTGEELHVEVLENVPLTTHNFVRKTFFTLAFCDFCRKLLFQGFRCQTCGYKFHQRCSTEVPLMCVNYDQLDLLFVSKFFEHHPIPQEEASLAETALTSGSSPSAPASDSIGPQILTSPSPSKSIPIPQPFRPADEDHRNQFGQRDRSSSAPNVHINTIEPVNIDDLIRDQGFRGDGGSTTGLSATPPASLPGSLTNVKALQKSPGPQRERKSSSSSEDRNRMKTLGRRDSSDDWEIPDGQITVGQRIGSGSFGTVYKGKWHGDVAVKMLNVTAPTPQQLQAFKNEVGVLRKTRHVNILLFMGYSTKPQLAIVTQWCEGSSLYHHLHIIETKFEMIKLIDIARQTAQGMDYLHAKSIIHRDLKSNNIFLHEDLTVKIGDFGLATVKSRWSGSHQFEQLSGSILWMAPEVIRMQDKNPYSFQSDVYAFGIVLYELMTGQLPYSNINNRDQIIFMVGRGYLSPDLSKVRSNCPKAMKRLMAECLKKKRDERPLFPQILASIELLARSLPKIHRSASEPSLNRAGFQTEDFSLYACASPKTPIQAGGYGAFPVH

O=C(Nc1ccccc1)Nc1cccc(C(=O)c2c[nH]c3ncc(Cl)cc23)c1 [Compound P-1733, 1-[3-(5-Chloro-1H-pyrrolo[2,3-b]pyridine-3-carbonyl)-phenyl]-3-phenyl-urea]
not listed: FGFR1
≤ 10 µM: all other assays above

O=C(Nc1cccc(C(=O)c2c[nH]c3ncc(Cl)cc23)c1)Nc1ccc(C(F)(F)F)cc1Cl [Compound P-1739, 1-[3-(5-Chloro-1H-pyrrolo[2,3-b]pyridine-3-carbonyl)-phenyl]-3-(2-chloro-4-trifluoromethyl-phenyl)-urea]
not listed: FGFR1
≤ 10 µM: all other assays above

CCCS(=O)(=O)Nc1cccc(C(=O)c2c[nH]c3ncc(F)cc23)c1F [Compound P-1028, propane-1-sulfonic acid [2-fluoro-3-(5-fluoro-1H-pyrrolo[2,3-b]pyridine-3-carbonyl)-phenyl]-amide]
≤ 10 µM: B-Raf | B-Raf V600E | c-Raf-1

O=C(Nc1cccc(C(=O)c2c[nH]c3ncc(Cl)cc23)c1)Nc1cccc(C(F)(F)F)c1F [Compound P-1740, 1-[3-(5-Chloro-1H-pyrrolo[2 3-b]pyridine-3-carbonyl)-phenyl]-3-(2-fluoro-3-trifluoromethyl-phenyl)-urea]
not listed: FGFR1
≤ 10 µM: all other assays above

CCCS(=O)(=O)Nc1ccc(F)c(C(=O)c2c[nH]c3ncc(C(=O)NCC)cc23)c1F [Compound P-1630, 3-[2,6-difluoro-3-(propane-1-sulfonylamino)-benzoyl]-1H-pyrrolo[2,3-b]pyridine-5-carboxylic acid ethylamide]
not listed: FGFR1
≤ 10 µM: all other assays above

O=C(c1c(F)ccc(NS(=O)(=O)c2ccccc2)c1F)c1c[nH]c2ncc(Br)cc12 [Compound P-0798, N-[3-(5-Bromo-1H-pyrrolo[2,3-b]pyridine-3-carbonyl)-2,4-difluoro-phenyl]-benzenesulfonamide]
≤ 10 µM: all assays above

CC(=O)Nc1cccc(-c2cnc3[nH]cc(C(=O)c4cccc(C(F)(F)F)c4)c3c2)c1 [Compound P-1419, N-{3-[3-(3-Trifluoromethyl-benzoyl)-1H-pyrrolo[2,3-b]pyridin-5-yl]-phenyl}-acetamide]
≤ 10 µM: all assays above

O=C(Nc1ccc(F)c(C(=O)c2c[nH]c3ncccc23)c1F)OCc1ccccc1 [Compound P-0894, [2,4-Difluoro-3-(1H-pyrrolo[2,3-b]pyridine-3-carbonyl)-phenyl]-carbamic acid benzyl ester]
≤ 10 µM: B-Raf | B-Raf V600E | c-Raf-1 | FGFR1

CCCCOc1ccc(S(=O)(=O)Nc2ccc(F)c(C(=O)c3c[nH]c4ncccc34)c2F)cc1 [Compound P-1006, 4-Butoxy-N-[2,4-difluoro-3-(1H-pyrrolo[2,3-b]pyridine-3-carbonyl)-phenyl]-benzenesulfonamide]
≤ 10 µM: B-Raf | B-Raf V600E | c-Raf-1

O=C(Nc1cccc(C(=O)c2c[nH]c3ncccc23)c1)Nc1cccc(C(F)(F)F)c1F [Compound P-1714, 1-(2-Fluoro-3-trifluoromethyl-phenyl)-3-[3-(1H-pyrrolo[2,3-b]pyridine-3-carbonyl)-phenyl]-urea]
not listed: FGFR1
≤ 10 µM: all other assays above

COc1ccc(F)c(C(=O)c2c[nH]c3ncc(Br)cc23)c1F [Compound P-1386, (5-Bromo-1H-pyrrolo[2,3-b]pyridin-3-yl)-(2,6-difluoro-3-methoxy-phenyl)-methanone]
≤ 10 µM: all assays above

COC(c1ccc(NCc2ccc(C(F)(F)F)cc2)nc1)c1c[nH]c2ncccc12 (stereo not drawn) [Compound P-0382]
≤ 10 µM: B-Raf | B-Raf V600E | c-Raf-1

O=S(=O)(Nc1ccc(F)c(C(O)c2c[nH]c3ncc(Br)cc23)c1F)c1ccccc1 (stereo not drawn) [Compound P-0959]
≤ 10 µM: B-Raf | B-Raf V600E | c-Raf-1

COCCOc1cnc2[nH]cc(C(=O)c3c(F)ccc(NS(=O)(=O)c4cccc(F)c4)c3F)c2c1 [Compound P-1871, N-{2,4-Difluoro-3-[5-(2-methoxy-ethoxy)-1H-pyrrolo[2,3-b]pyridine-3-carbonyl]-phenyl}-3-fluoro-benzenesulfonamide]
not listed: FGFR1
≤ 10 µM: all other assays above

O=S(=O)(Nc1ccc(F)c(C(O)c2c[nH]c3ncc(F)cc23)c1F)c1ccccc1 (stereo not drawn) [Compound P-1003]
≤ 10 µM: B-Raf | B-Raf V600E | c-Raf-1

CCCS(=O)(=O)Nc1ccc(Cl)c(C(=O)c2c[nH]c3ncc(Cl)cc23)c1F [Compound P-1004, Propane-1-sulfonic acid [4-chloro-3-(5-chloro-1H-pyrrolo[2,3-b]pyridine-3-carbonyl)-2-fluoro-phenyl]-amide]
≤ 10 µM: B-Raf | B-Raf V600E | c-Raf-1 | FGFR1

CCc1cnc2[nH]cc(C(=O)c3c(F)ccc(NS(=O)(=O)c4ccc(C(F)(F)F)cc4)c3F)c2c1 [Compound P-1783, N-[3-(5-Ethyl-1H-pyrrolo[2,3-b]pyridine-3-carbonyl)-2,4-difluoro-phenyl]-4-trifluoromethyl-benzenesulfonamide]
not listed: FGFR1
≤ 10 µM: all other assays above

Cc1nc2ccc(Nc3ccnc4[nH]ccc34)cc2s1 [Compound P-1014]
≤ 10 µM: B-Raf | B-Raf V600E | c-Raf-1

CCCS(=O)(=O)Nc1ccc(F)c(C(=O)c2c[nH]c3ncc(-c4ccc(N5CCN(C)CC5)nc4)cc23)c1F [Compound P-1882, Propane-1-sulfonic acid (2,4-difluoro-3-{5-[6-(4-methyl-piperazine-1-yl)-pyridin-3-yl]-1H-pyrrolo[2,3-b]pyridine-3-carbonyl}-phenyl)-amide]
not listed: FGFR1
≤ 10 µM: all other assays above

O=C(Nc1cccc(C(=O)c2c[nH]c3ncccc23)c1)Nc1cc(C(F)(F)F)ccc1Cl [Compound P-1712, 1-(2-Chloro-5-trifluoromethyl-phenyl)-3-[3-(1H-pyrrolo[2,3-b]pyridine-3-carbonyl)-phenyl]-urea]
not listed: FGFR1
≤ 10 µM: all other assays above

O=C(Nc1cccc(C(=O)c2c[nH]c3ncc(Cl)cc23)c1)Nc1cc(C(F)(F)F)ccc1Cl [Compound P-1738, 1-[3-(5-Chloro-1H-pyrrolo[2,3-b]pyridine-3-carbonyl)-phenyl]-3-(2-chloro-5-trifluoromethyl-phenyl)-urea]
≤ 10 µM: B-Raf | B-Raf V600E | c-Raf-1 | Fms

CCCS(=O)(=O)Nc1ccc(F)c(C(O)c2c[nH]c3ncc(OC)cc23)c1F (stereo not drawn) [Compound P-1243, Propane-1-sulfonic acid {2,4-difluoro-3-[hydroxy-(5-methoxy-1H-pyrrolo[2,3-b]pyridin-3-yl)-methyl]-phenyl}-amide]
≤ 10 µM: B-Raf | B-Raf V600E | c-Raf-1

CCCS(=O)(=O)Nc1ccc(Cl)c(C(=O)c2c[nH]c3ncc(-c4ccccc4)cc23)c1F [Compound P-0776, Propane-1-sulfonic acid [4-chloro-2-fluoro-3-(5-phenyl-1H-pyrrolo[2,3-b]pyridine-3-carbonyl)-phenyl]-amide]
not listed: Fms
≤ 10 µM: all other assays above

CCCS(=O)(=O)Nc1ccc(F)c(C(=O)c2c[nH]c3ncc(-c4ccc(N5CCOCC5)nc4)cc23)c1F [Compound P-1881, Propane-1-sulfonic acid {2,4-difluoro-3-[5-(6-morpholin-4-yl-pyridin-3-yl)-1H-pyrrolo[2,3-b]pyridine-3-carbonyl]-phenyl}-amide]
not listed: FGFR1
≤ 10 µM: all other assays above

COC(c1ccc(N(Cc2ccc(Cl)cc2)C(=O)OC(C)(C)C)nc1)c1c[nH]c2ncc(Br)cc12 (stereo not drawn) [Compound P-0779]
≤ 10 µM: B-Raf | B-Raf V600E | c-Raf-1

COc1cc(Cc2c[nH]c3ncc(-c4ccsc4)cc23)cc(OC)c1 [Compound P-0613]
≤ 10 µM: all assays above

c1ccc2cc(Nc3ccnc4[nH]ccc34)ccc2c1 [Compound P-0975]
≤ 10 µM: B-Raf | c-Raf-1

Source: patent US8415469B2, “Compounds and methods for kinase modulation, and indications therefor” (Plexxikon Inc., priority 2005, dated 2013)
